{"source": "patent US9630894B2", "about": "“Energy efficient method and apparatus for the extraction of biomolecules from dilute aqueous solution” (DYNASEP INC., priority 2012, dated 2017)", "tested_on": "fermentation cultures", "test": "DME toxicity study: solvent production / metabolite analysis by HPLC", "type": "cell-based", "conditions": "for Acetate concentration / Acetoin concentration / Acetone concentration / Butanol concentration / Butyrate concentration / Ethanol concentration / Glucose concentration: 196 hours after inoculation", "protocol": "Toxicity studies were performed to determine the effects of DME on fermentation cultures. Cell growth, viability and solvent production were measured to determine what effect DME has on fermentation cultures. Cell growth was monitored by absorption measurements taken at 600 nm (A600). Viability was measured by counting the colony forming units (CFU) after 24 hours. Solvent production was quantified by HPLC.\nThe first round of testing was performed using media that had been sparged with DME gas at 23° C. The amount of DME absorbed into the media was measured by weight gain after sparging. […] Two control cultures were also used for direct comparison of cultures with and without the presence of DME.\nA second round of testing was performed at lower DME concentrations. The concentration of DME varied from 0.7 wt. % to 2.9 wt. %. Cell densities were measured between 3 and 64 hours after inoculation. […] Based on the solvent measurements in Table 8 and Table 9 solvent production was also unaffected by DME at 0.7 wt. %. […] This is apparent after examination of the cell density and solvent production for samples 1-5, 2-1, 2-4 and 2-5 in comparison to the control samples 1-B and 2-B.", "key": {"[1]": {"conditions": "culture 2-1, weight % DME printed as ?"}}, "note": "Entries after “also recorded” stand apart in the source; their conditions may differ."}
{"smiles": "COC", "note": "[DME, dimethyl ether]", "values": [{"measurement": "effect on solvent production", "setting": "DME at 0.7 wt. %", "result": "unaffected; also recorded: no noticeable effect"}, {"measurement": "Metabolite conc. Final Acetate", "setting": "culture 1-2, 3.48% DME", "result": 42.01, "unit": "mM"}, {"measurement": "Metabolite conc. Final Acetoin", "setting": "culture 1-2, 3.48% DME", "result": 0.00, "unit": "mM"}, {"measurement": "Metabolite conc. Final Acetone", "setting": "culture 1-2, 3.48% DME", "result": 0.00, "unit": "mM"}, {"measurement": "Metabolite conc. Final Butanol", "setting": "culture 1-2, 3.48% DME", "result": 0.00, "unit": "mM"}, {"measurement": "Metabolite conc. Final Butyrate", "setting": "culture 1-2, 3.48% DME", "result": 101.72, "unit": "mM"}, {"measurement": "Metabolite conc. Final Ethanol", "setting": "culture 1-2, 3.48% DME", "result": 0.00, "unit": "mM"}, {"measurement": "Metabolite conc. Final Glucose", "setting": "culture 1-2, 3.48% DME", "result": 410.70, "unit": "mM"}, {"measurement": "Acetate concentration", "setting": "culture 1-2, DME 18.1 g/L", "result": 45.7, "unit": "mM"}, {"measurement": "Acetoin concentration", "setting": "culture 1-2, DME 18.1 g/L", "result": 1.7, "unit": "mM"}, {"measurement": "Acetone concentration", "setting": "culture 1-2, DME 18.1 g/L", "result": 4.9, "unit": "mM"}, {"measurement": "Butanol concentration", "setting": "culture 1-2, DME 18.1 g/L", "result": 11.7, "unit": "mM"}, {"measurement": "Butyrate concentration", "setting": "culture 1-2, DME 18.1 g/L", "result": 80.8, "unit": "mM"}, {"measurement": "Ethanol concentration", "setting": "culture 1-2, DME 18.1 g/L", "result": 1.9, "unit": "mM"}, {"measurement": "Glucose concentration", "setting": "culture 1-2, DME 18.1 g/L", "result": 381.5, "unit": "mM"}, {"measurement": "Metabolite conc. Final Acetate", "setting": "culture 1-3, […] DME", "result": 47.46, "unit": "mM"}, {"measurement": "Metabolite conc. Final Acetoin", "setting": "culture 1-3, […] DME", "result": 0.00, "unit": "mM"}, {"measurement": "Metabolite conc. Final Acetone", "setting": "culture 1-3, […] DME", "result": 8.33, "unit": "mM"}, {"measurement": "Metabolite conc. Final Butanol", "setting": "culture 1-3, […] DME", "result": 14.84, "unit": "mM"}, {"measurement": "Metabolite conc. Final Butyrate", "setting": "culture 1-3, […] DME", "result": 89.52, "unit": "mM"}, {"measurement": "Metabolite conc. Final Ethanol", "setting": "culture 1-3, […] DME", "result": 0.00, "unit": "mM"}, {"measurement": "Metabolite conc. Final Glucose", "setting": "culture 1-3, […] DME", "result": 380.17, "unit": "mM"}, {"measurement": "Metabolite conc. Final Acetate", "setting": "[1]", "result": 33.46, "unit": "mM"}, {"measurement": "Metabolite conc. Final Acetoin", "setting": "[1]", "result": 0.00, "unit": "mM"}, {"measurement": "Metabolite conc. Final Acetone", "setting": "[1]", "result": 0.00, "unit": "mM"}, {"measurement": "Metabolite conc. Final Butanol", "setting": "[1]", "result": 0.00, "unit": "mM"}, {"measurement": "Metabolite conc. Final Butyrate", "setting": "[1]", "result": 94.00, "unit": "mM"}, {"measurement": "Metabolite conc. Final Ethanol", "setting": "[1]", "result": 0.00, "unit": "mM"}, {"measurement": "Metabolite conc. Final Glucose", "setting": "[1]", "result": 432.02, "unit": "mM"}, {"measurement": "Metabolite conc. Final Acetate", "setting": "culture 2-2, 3.92% DME", "result": 42.17, "unit": "mM"}, {"measurement": "Metabolite conc. Final Acetoin", "setting": "culture 2-2, 3.92% DME", "result": 0.00, "unit": "mM"}, {"measurement": "Metabolite conc. Final Acetone", "setting": "culture 2-2, 3.92% DME", "result": 0.00, "unit": "mM"}, {"measurement": "Metabolite conc. Final Butanol", "setting": "culture 2-2, 3.92% DME", "result": 0.00, "unit": "mM"}, {"measurement": "Metabolite conc. Final Butyrate", "setting": "culture 2-2, 3.92% DME", "result": 91.28, "unit": "mM"}, {"measurement": "Metabolite conc. Final Ethanol", "setting": "culture 2-2, 3.92% DME", "result": 0.00, "unit": "mM"}, {"measurement": "Metabolite conc. Final Glucose", "setting": "culture 2-2, 3.92% DME", "result": 418.43, "unit": "mM"}, {"measurement": "Acetone concentration", "setting": "culture 2-2, DME 6.8 g/L", "result": 10.2, "unit": "mM"}, {"measurement": "Butanol concentration", "setting": "culture 2-2, DME 6.8 g/L", "result": 23.6, "unit": "mM"}, {"measurement": "Butyrate concentration", "setting": "culture 2-2, DME 6.8 g/L", "result": 55.7, "unit": "mM"}, {"measurement": "Ethanol concentration", "setting": "culture 2-2, DME 6.8 g/L", "result": 3.8, "unit": "mM"}, {"measurement": "Metabolite conc. Final Acetate", "setting": "culture 2-3, 3.72% DME", "result": 34.46, "unit": "mM"}, {"measurement": "Metabolite conc. Final Acetoin", "setting": "culture 2-3, 3.72% DME", "result": "0,00 mM"}, {"measurement": "Metabolite conc. Final Acetone", "setting": "culture 2-3, 3.72% DME", "result": 0.00, "unit": "mM"}, {"measurement": "Metabolite conc. Final Butyrate", "setting": "culture 2-3, 3.72% DME", "result": 86.91, "unit": "mM"}, {"measurement": "Metabolite conc. Final Ethanol", "setting": "culture 2-3, 3.72% DME", "result": 0.00, "unit": "mM"}, {"measurement": "Acetate concentration", "setting": "culture 2-3, DME 6.6 g/L", "result": 44.6, "unit": "mM"}, {"measurement": "Acetoin concentration", "setting": "culture 2-3, DME 6.6 g/L", "result": 5.6, "unit": "mM"}, {"measurement": "Acetone concentration", "setting": "culture 2-3, DME 6.6 g/L", "result": 9.6, "unit": "mM"}, {"measurement": "Butanol concentration", "setting": "culture 2-3, DME 6.6 g/L", "result": 21.6, "unit": "mM"}, {"measurement": "Butyrate concentration", "setting": "culture 2-3, DME 6.6 g/L", "result": 57.3, "unit": "mM"}, {"measurement": "Ethanol concentration", "setting": "culture 2-3, DME 6.6 g/L", "result": 3.8, "unit": "mM"}, {"measurement": "Glucose concentration", "setting": "culture 2-3, DME 6.6 g/L", "result": 338.3, "unit": "mM"}, {"measurement": "Acetate concentration", "setting": "culture 2-4, DME 29.1 g/L", "result": 42.5, "unit": "mM"}, {"measurement": "Acetoin concentration", "setting": "culture 2-4, DME 29.1 g/L", "result": 0.0, "unit": "mM"}, {"measurement": "Acetone concentration", "setting": "culture 2-4, DME 29.1 g/L", "result": 2.1, "unit": "mM"}, {"measurement": "Butanol concentration", "setting": "culture 2-4, DME 29.1 g/L", "result": 3.7, "unit": "mM"}, {"measurement": "Butyrate concentration", "setting": "culture 2-4, DME 29.1 g/L", "result": 94.8, "unit": "mM"}, {"measurement": "Ethanol concentration", "setting": "culture 2-4, DME 29.1 g/L", "result": 0.0, "unit": "mM"}, {"measurement": "Glucose concentration", "setting": "culture 2-4, DME 29.1 g/L", "result": 403.0, "unit": "mM"}, {"measurement": "Acetate concentration", "setting": "culture 2-5, DME 27.9 g/L", "result": 41.7, "unit": "mM"}, {"measurement": "Acetoin concentration", "setting": "culture 2-5, DME 27.9 g/L", "result": 0.0, "unit": "mM"}, {"measurement": "Acetone concentration", "setting": "culture 2-5, DME 27.9 g/L", "result": 4.3, "unit": "mM"}, {"measurement": "Butanol concentration", "setting": "culture 2-5, DME 27.9 g/L", "result": 7.2, "unit": "mM"}, {"measurement": "Butyrate concentration", "setting": "culture 2-5, DME 27.9 g/L", "result": 94.5, "unit": "mM"}, {"measurement": "Ethanol concentration", "setting": "culture 2-5, DME 27.9 g/L", "result": 0.0, "unit": "mM"}, {"measurement": "Glucose concentration", "setting": "culture 2-5, DME 27.9 g/L", "result": 396.9, "unit": "mM"}, {"measurement": "effect on solvent production", "setting": "cultures containing DME, 3 to 4 wt. %", "result": "greatly reduced"}]}
